Numbered stars: 1 amine (or outer) side, 2 acyl side, 3 side chain; on linkers, the order of the positions; unused ones are H or OH. Bridge positions count the residues as written; N and C are the ends. Square brackets hold non-standard residues; d marks the D form. Side chains are listed from the residue outwards. Peptide text beside a SMILES is read from it. * marks the point of attachment. γGlu = O=C(O)[C@H](CCC(=O)[*:2])N[*:1]; Palmitoyl = CCCCCCCCCCCCCCCC(=O)*; Myristoyl = CCCCCCCCCCCCCC(=O)*; Dab = NCC[C@H](N)C(=O)O
Assays:
[1] = Plasma stability in human plasma; type: in vitro ADME; details: human plasma, 37° C.; for remaining at 24 h, 10 μM: 1440 min, read-out: human pl. cpd left at 1440 min
Summary of the method: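 Peptides (1 mM DMSO/H2O stock) were spiked into human or mouse plasma in triplicate and incubated at 37 °C, sampling from 0 to 1440 min. Samples were quenched in formic acid/acetonitrile and analysed by LC/MS MRM. Remaining percent of t=0 was calculated and T1/2 derived by trend fitting.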

in vivo = assay: in vivo; parameters: species or system male CD-1 mice; details: for bioavailability / AUC(0-inf) / Cmax / Tmax / half-life / level at 0.083 h / level at 0.25 h / level at 0.5 h / level at 1 h / level at 2 h / level at 4 h / level at 8 h / level at 12 h / level at 24 h: male, CD-1, mouse; for AUC0-∞ dcor. / Cmax dcor.: mouse
Experimental: 2.7. Pharmacokinetic Study (PK)
Pharmacokinetic study after intravenous (i.v.) and subcutaneous (s.c.) administration was performed for the compounds of Ex. 17, Ex. 20, Ex. 25, Ex. 26, Ex. 28, and Ex. 29. […] The compounds of Ex. 17, Ex. 25, Ex. 26, Ex. 28, and Ex. 29 were administered i.v. and s.c. as a cassette whereas for the compound of Ex. 20a single i.v. and s.c. administration was accomplished.
30 grams (±20%) male CD-1 mice obtained from Janvier, France, were used in the study testing the cassette compounds. The vehicle, phosphate buffered saline containing 5% DMSO, was added to give a final concentration of 0.5 mg/mL of the compounds (i.v. route and s.c. route). The volume was 2 mL/kg i.v. and 10 mL/kg s.c. and the cassette compounds were injected to give a final intravenous dose of 1 mg/kg and an subcutaneous dose of 5 mg/kg. Approximately 500 μL of blood were removed from the opened heart at predetermined time intervals (5, 15, 30 min and 1, 2, 4, 8 and 12 hours for the i.v. study and 5, 15, 30 min and 1, 2, 4, 8, 12 and 24 hours for the s.c. study) and added to heparinized tubes. Plasma was removed from pelleted cells upon centrifugation and frozen at −80° C. prior to HPLC-MS analysis. For the compound of Ex. 20 30 grams (±20%) male CD-1 mice obtained from Charles River Laboratories Deutschland GmbH were used. The vehicle, phosphate buffered saline, was added to give a final concentration of 0.2 mg/mL of the compound (i.v. route) and 1 mg/mL (s.c. route). The volume was 5 mL/kg i.v. and s.c. and the compound was injected to give a final intravenous dose of 1 mg/kg and an subcutaneous dose of 5 mg/kg. Approximately 300-400 μL of blood was removed under light isoflurane anesthesia by cardiac puncture at predetermined time intervals (5, 15, 30 min and 1, 2, 3, 4, 6, 12 hours for the i.v. study and 15, min and 1, 2, 4, 6, 8, 12 and 24 hours for the s.c. study) and added to heparinized tubes. Plasma was removed from pelleted cells upon centrifugation and frozen at −80° C. prior to HPLC-MS analysis.
Preparation of the Plasma Calibration Samples
“Blank” mouse plasma from untreated animals was used. Aliquots of plasma of 0.2 mL each were spiked with 50 ng of propranolol (Internal Standard, IS), (sample preparation by solid phase extraction on OASIS® HLB cartridges [Waters]) and with known amounts of Ex. 20 in order to obtain 9 plasma calibration samples in the range 10-5000 nM. The OASIS® HLB cartridges were conditioned with 1 mL of methanol and then with 1 mL of 1% NH3 in water. Samples were then diluted with 700 μL of 1% NH3 in water and loaded. The plate was washed with 1 mL of methanol/1% NH3 in water 5/95 (v/v). Elution was performed using 1 mL of 0.1% TFA in methanol.
The plate containing eluates was introduced into the concentrator system and taken to dryness. The residues were dissolved in 100 μL of formic acid 0.1%/acetonitrile, 95/5 (v/v) and analysed in the HPLC/MS on a reverse phase analytical column (Jupiter C18, 50×2.0 mm, 5 μm, Phenomenex), using gradient elution (mobile phases A: 0.1% formic acid in water, B: acetonitrile; from 5% B to 100% B in 2 min.).
Preparation of Plasma Samples
Samples coming from animal treatments were pooled in order to obtain an appropriate volume for the extraction. If the total volume obtained was less than 0.2 mL the appropriate amount of “blank” mouse plasma was added in order to keep the matrix identical to the calibration curve. Samples were than spiked with IS and processed as described for the calibration curve.
Pharmacokinetic Evaluation
In order to perform PK analysis pooled plasma data (n=3 mice) was used. PK parameters were calculated by WinNonLin™ software version 5.2.1 (Pharsight—A Certara™ Company, Mountain View, Calif. 94041 USA) using non-compartmental analysis with a linear up/log down trapezoidal calculation method. For the terminal elimination phase at least 3 time points and a correlation coefficient greater than 0.85 was used. […]

Row | Structure (SMILES) | remaining at 24 h, 10 μM [1] [%] | bioavailability (in vivo) [%] | AUC(0-inf) (in vivo; iv, 1 mg/kg) [ng·h/mL] | Cmax (in vivo; iv, 1 mg/kg) [ng/mL] | Tmax (in vivo; iv, 1 mg/kg) [h] | half-life (in vivo; iv, 1 mg/kg) [h] | level at 0.083 h (in vivo; iv, 1 mg/kg) [ng/mL] | level at 0.25 h (in vivo; iv, 1 mg/kg) [ng/mL] | level at 0.5 h (in vivo; iv, 1 mg/kg) [ng/mL] | level at 1 h (in vivo; iv, 1 mg/kg) [ng/mL] | level at 2 h (in vivo; iv, 1 mg/kg) [ng/mL] | level at 4 h (in vivo; iv, 1 mg/kg) [ng/mL] | level at 8 h (in vivo; iv, 1 mg/kg) [ng/mL] | level at 12 h (in vivo; iv, 1 mg/kg) [ng/mL] | AUC(0-inf) (in vivo; sc, 5 mg/kg) [ng·h/mL] | Cmax (in vivo; sc, 5 mg/kg) [ng/mL] | Tmax (in vivo; sc, 5 mg/kg) [h] | half-life (in vivo; sc, 5 mg/kg) [h] | level at 0.25 h (in vivo; sc, 5 mg/kg) [ng/mL] | level at 0.5 h (in vivo; sc, 5 mg/kg) [ng/mL] | other results
1 | CCCCCCCCCCCCCC(=O)N[C@@H](CCC(=O)NCCCC[C@@H]1NC(=O)[C@H](Cc2ccc(O)cc2)NC(=O)[C@@H]2CSSC[C@H](NC(=O)[C@H](Cc3ccc(O)cc3)NC(=O)[C@H](Cc3c[nH]cn3)NC(=O)[C@H](Cc3ccc(O)cc3)NC(=O)[C@@H]3CCCN3C(=O)[C@H]3CCCN3C(=O)[C@H](CCCCN)NC1=O)C(=O)N[C@@H](CO)C(=O)N[C@@H](C)C(=O)N1CCC[C@@H]1C(=O)N[C@@H](CCN)C(=O)N[C@@H](CCCNC(=N)N)C(=O)N[C@@H](Cc1ccc(O)cc1)C(=O)N2)C(=O)O [Ex. 28] (cyclo(YHYCSA[dP][Dab]RYCYK([γGlu-Myristoyl])K[dP]P); disulfide 4-11) | 80 | 150 | 3430 | 2820 | 0.1 | 3.2 | 2820 | 2120 | 2030 | 1670 | 114 | 148 | 34 | 17 | 25700 | 1900 | 8 | 4.3 | 16 | 73 | half-life at 10 μM ([1]; up to 1440 min, read-out: human pl. T1/2): 19.1 h; level at 1 h (in vivo; sc, 5 mg/kg): 232 ng/mL; level at 2 h (in vivo; sc, 5 mg/kg): 1520 ng/mL; level at 4 h (in vivo; sc, 5 mg/kg): 1270 ng/mL; level at 8 h (in vivo; sc, 5 mg/kg): 1900 ng/mL; level at 12 h (in vivo; sc, 5 mg/kg): 1610 ng/mL; level at 24 h (in vivo; sc, 5 mg/kg): 164 ng/mL; AUC0-∞ dcor. (in vivo; iv, 1 mg/kg): 3430.8 kg·ng·h/mg/mL; Cmax dcor. (in vivo; iv, 1 mg/kg): 2817.0 kg·ng/mg/mL; AUC0-∞ dcor. (in vivo; sc, 5 mg/kg): 5137.4 kg·ng·h/mg/mL; Cmax dcor. (in vivo; sc, 5 mg/kg): 380.0 kg·ng/mg/mL
2 | CCCCCCCCCCCCCCCC(=O)N[C@@H](CCC(=O)NCCCC[C@@H]1NC(=O)[C@H](Cc2ccc(O)cc2)NC(=O)[C@@H]2CSSC[C@H](NC(=O)[C@H](Cc3ccc(O)cc3)NC(=O)[C@H](Cc3c[nH]cn3)NC(=O)[C@H](Cc3ccc(O)cc3)NC(=O)[C@@H]3CCCN3C(=O)[C@H]3CCCN3C(=O)[C@H](CCCCN)NC1=O)C(=O)N[C@@H](CO)C(=O)N[C@@H](C)C(=O)N1CCC[C@@H]1C(=O)N[C@@H](CCN)C(=O)N[C@@H](CCCNC(=N)N)C(=O)N[C@@H](Cc1ccc(O)cc1)C(=O)N2)C(=O)O [Ex. 29] (cyclo(YHYCSA[dP][Dab]RYCYK([γGlu-Palmitoyl])K[dP]P); disulfide 4-11) | 74 | 151 | 2940 | 2320 | 0.1 | 3.6 | 2320 | 1820 | 1730 | 1500 | 87 | 114 | 35 | 16 | 22200 | 1600 | 8 | 4.7 | 9 | 41 | human pl. T1/2 ([1]; up to 1440 min): 24 h; level at 1 h (in vivo; sc, 5 mg/kg): 137 ng/mL; level at 2 h (in vivo; sc, 5 mg/kg): 1050 ng/mL; level at 4 h (in vivo; sc, 5 mg/kg): 958 ng/mL; level at 8 h (in vivo; sc, 5 mg/kg): 1600 ng/mL; level at 12 h (in vivo; sc, 5 mg/kg): 1430 ng/mL; level at 24 h (in vivo; sc, 5 mg/kg): 175 ng/mL; AUC0-∞ dcor. (in vivo; iv, 1 mg/kg): 2945.0 kg·ng·h/mg/mL; Cmax dcor. (in vivo; iv, 1 mg/kg): 2317.0 kg·ng/mg/mL; AUC0-∞ dcor. (in vivo; sc, 5 mg/kg): 4436.2 kg·ng·h/mg/mL; Cmax dcor. (in vivo; sc, 5 mg/kg): 320.6 kg·ng/mg/mL

— patent US8716242B2, “β-hairpin peptidomimetics” (priority 2009, dated 2014)
